Data on seven compounds can be found in patent US7491794B2, “Macrocyclic compounds as inhibitors of viral replication” (Intermune, Inc., priority 2003, dated 2009).

For one assay, the target named is T1, NS3-NS4 protease (Hepatitis C virus genotype 1a, UniProt P27958).
T1 construct: Recombinant E. coli or Baculovirus full-length NS3 was diluted to 3.33 μM with assay buffer; made in house; host or cells: E. coli or baculovirus (BV) system
Kind of assay: NS3-NS4 protease assay / NS3 inhibition assay, Section C. Format: biochemical. The note with it: read-out: NS3-NS4 IC50. The method, then: NS3 complex formation with NS4A-2.
Recombinant E. coli or Baculovirus full-length NS3 was diluted to 3.33 μM with assay buffer and transfered material to an eppendorf tube and place in water bath in 4° C. refrigerator. The appropriate amount of NS4A-2 to 8.3 mM in assay buffer was added to equal the volume of NS3 in step 2.1.1 (conversion factor −3.8 mg/272 μL assay buffer). The material was transferred to an eppendorf tube and place in water bath in 4° C. refrigerator.
After equilibration to 4° C., equal volumes of NS3 and NS4A-2 solutions were combined in an eppendorf tube, mix gently with a manual pipettor, and incubate mixture for 15 minutes in the 4° C. water bath. Final concentrations in the mixture are […] NS3, 4.15 mM NS4A-2 (2485-fold molar excess NS4A-2).
After 15 minutes at 4° C., the NS3/NS4A-2 eppendorf tube was removed and place it in a room temperature water bath for 10 minutes. NS3/NS4A-2 was alliquoted at appropriate volumes and store at −80° C. (E. coli NS3 run at 2 nM in assay, aliquot at 25 μL. BV NS3 run at 3 nM in assay, aliquot at 30 μL).
Step 2.2.5. Sample compounds were dissolved to 10 mM in DMSO then diluted to 2.5 mM (1:4) in DMSO.
Step 2.2.6. The E. coli. NS3/NS4A-2 was diluted to 4 nM NS3 (1:417.5 of […] stock−18 μL 1.67 μM stock+7497 μL assay buffer). The BV NS3/NS4A-2 was diluted to 6 nM NS3 (1:278.3 of 1.67 μM stock−24 μL 1.67 μM stock+6655 μL assay buffer).
Step 2.2.7. Using the manual multichannel pipettor, and being careful not to introduce bubbles into the plate, 50 μL assay buffer were added to wells A01-H01 of a black Costar 96-well polypropylene storage plate.
Step 2.2.8. Using the manual multichannel pipettor, and being careful not to introduce bubbles into the plate, 50 μL of diluted NS3/NS4A-2 from step 2.2.6 were added to wells A02-H12 of plate in step 2.2.7.
Step 2.2.9. Using the manual multichannel pipettor, and being careful not to introduce bubbles into the plate, 25 μL of the wells in drug dilution plate in step 2.2.5 were transferred to corresponding wells in assay plate in step 2.2.8. The tips on multichannel pipettor were changed for each row of compounds transferred.
Step 2.2.10. Using the manual multichannel pipettor, and being careful not to introduce bubbles into the plate, the contents of the wells from the assay plate in step 2.2.9 were mixed by aspirating and dispensing 35 μL of the 75 μL in each well five times. The tips on the multichannel pipettor were changed for each row of wells mixed.
Step 2.2.11. The plate was covered with a polystyrene plate lid, and the plate from step 2.2.10 containing NS3 protease and sample compounds was pre-incubated 10 minutes at room temperature.
While the plate from step 2.2.11 was pre-incubating, the RETS1 substrate was diluted in a 15 mL polypropylene centrifuge tube. The RETS1 substrate was diluted to 8 μM (1:80.75 of 646 μM stock−65 μL 646 μM stock+5184 μL assay buffer).
After the plate in step 2.2.11 was done pre-incubating, and using the manual multichannel, 25 μL of substrate were added to all wells on the plate. The contents of the wells of plate were quickly mixed, as in step 2.2.10, but mixing 65 μL of the 100 μL in the wells.
The plate was read in kinetic mode on the Molecular Devices SpectraMax Gemini XS plate reader. Reader settings: Read time: 30 minutes, Interval: 36 seconds, Reads: 51, Excitation λ: 335 nm, Emission λ: 495 nm, cutoff: 475 nm, Automix: off, Calibrate: once, PMT: high, Reads/well: 6, Vmax pts: 21 or 28/51 depending on length of linearity of reaction.
IC50s were determined using a four parameter curve fit equation, and converted to Ki's using the following Km's:
where Ki=IC50/(1+[S]/Km))

Assay [1] has as its system HCV sub-genomic replicon, GS4.3. Kind of assay: Quantitation by ELISA of NPTII in the HCV sub-genomic replicon, GS4.3, Section C. The class given is cell-based. The note with it: Hepatitis C virus; GS4.3 cells, 72 h incubation; read-out: EC50. An excerpt:
Quantitation by ELISA of the selectable marker protein, Neomycin phosphotransferase II (NPTII) in the HCV Sub-Genomic Replicon, GS4.3
The HCV sub-genomic replicon (1377/NS3-3′, accession No. AJ242652), stably maintained in HuH-7 hepatoma cells, was created by Lohmann et al. Science 285: 110-113 (1999). The replicon-containing cell culture, designated GS4.3, was obtained from Dr. Christoph Seeger of the Institute for Cancer Research, Fox Chase Cancer Center, Philadelphia, Pa.
GS4.3 cells were maintained at 37° C., 5% CO2, in DMEM (Gibco 11965-092) supplemented with L-glutamine 200 mM (100×) (Gibco25030-081), non-essential amino acids (NEAA)(Biowhittaker 13-114E), heat-inactivated (HI) Fetal Bovine Serum(FBS)(Hyclone SH3007.03) and 750 μg/ml geneticin (G418)(Gibco 10131-035). Cells were sub-divided 1:3 or 4 every 2-3 days.
24 h prior to the assay, GS4.3 cells were collected, counted, and plated in 96-well plates (Costar 3585) at 7500 cells/well in 100 μl standard maintenance medium (above) and incubated in the conditions above. To initiate the assay, culture medium was removed, cells were washed once with PBS (Gibco 10010-023) and 90 μl Assay Medium (DMEM, L-glutamine, NEAA, 10% HI FBS, no G418) was added. Inhibitors were made as a 10× stock in Assay Medium, (3-fold dilutions from 10 μM to […] final concentration, final DMSO concentration 1%), 10 μl were added to duplicate wells, plates were rocked to mix, and incubated as above for 72 h.
An NPTII Elisa kit was obtained from AGDIA, Inc. (Compound direct ELISA test system for Neomycin Phosphotransferase II, PSP 73000/4800). Manufacturer's instructions were followed, with some modifications. 10×PEB-1 lysis buffer was made up to include 500 μM PMSF (Sigma P7626, 50 mM stock in isopropanol). After 72 h incubation, cells were washed once with PBS and 150 μl PEB-1 with PMSF was added per well. Plates were agitated vigorously for 15 minutes, room temperature, then frozen at −70° C. Plates were thawed, lysates were mixed thoroughly, and 100 μl were applied to an NPTII Elisa plate. A standard curve was made. Lysate from DMSO-treated control cells was pooled, serially diluted with PEB-1 with PMSF, and applied to duplicate wells of the ELISA plate, in a range of initial lysate amount of 150u1-2.5 ul. In addition, 100 μl buffer alone was applied in duplicate as a blank. Plates were sealed and gently agitated at room temperature for 2 h. Following capture incubation, the plates were washed 5×300 μl with PBS-T (0.5% Tween-20, PBS-T was supplied in the ELISA kit). For detection, a 1× dilution of enzyme conjugate diluent MRS-2 (5×) was made in PBS-T, into which 1:100 dilutions of enzyme conjugates A and B were added, as per instructions. Plates were resealed, and incubated with agitation, covered, room temperature, for 2 h. The washing was then repeated and 100 μl of room temperature TMB substrate was added. After approximately 30 minutes incubation (room temperature, agitation, covered), the reaction was stopped with 50 μl 3M sulfuric acid. Plates were read at 450 nm on a Molecular Devices Versamax plate reader.
Inhibitor effect was expressed as a percentage of DMSO-treated control signal, and inhibition curves were calculated using a 4-parameter equation: y=A+((B−A)/(1+((C/x)^D))), where C is half-maximal activity or EC50.

Some results are limits rather than exact numbers.

T1 sequence (P27958 1027-1657): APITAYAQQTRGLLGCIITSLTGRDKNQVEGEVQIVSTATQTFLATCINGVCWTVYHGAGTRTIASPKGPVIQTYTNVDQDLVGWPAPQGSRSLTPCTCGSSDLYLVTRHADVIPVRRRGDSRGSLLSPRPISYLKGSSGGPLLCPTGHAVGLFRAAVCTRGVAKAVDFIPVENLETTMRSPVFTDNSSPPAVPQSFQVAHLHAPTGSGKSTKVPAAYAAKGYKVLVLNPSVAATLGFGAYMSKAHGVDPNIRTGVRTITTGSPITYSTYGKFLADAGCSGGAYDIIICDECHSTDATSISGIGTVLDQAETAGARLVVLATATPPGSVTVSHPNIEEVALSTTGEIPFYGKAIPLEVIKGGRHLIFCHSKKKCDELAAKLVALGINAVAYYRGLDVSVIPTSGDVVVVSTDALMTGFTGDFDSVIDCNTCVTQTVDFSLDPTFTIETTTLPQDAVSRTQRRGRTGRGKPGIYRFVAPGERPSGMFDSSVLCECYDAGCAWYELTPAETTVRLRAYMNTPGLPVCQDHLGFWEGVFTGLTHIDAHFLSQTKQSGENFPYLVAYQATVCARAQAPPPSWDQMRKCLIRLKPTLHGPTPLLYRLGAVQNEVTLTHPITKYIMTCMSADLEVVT

Take `CC(C)(C)OC(=O)N[C@H]1CCCCC/C=C\[C@@H]2C[C@@]2(C(=O)NS(=O)(=O)Nc2ccc(C#N)cc2)NC(=O)[C@@H]2C[C@@H](OC(=O)N3Cc4ccccc4C3)CN2C1=O` [Compound 131, (1S,4R,6S,14S,18R)-1,3-Dihydro-isoindole-2-carboxylic acid 14-tert-butoxycarbonylamino-4-(4-cyanophenylaminosulfonyl-aminocarbonyl)-2,15-dioxo-3,16-diaza-tricyclo[14.3.0.0^4,6]nonadec-7-en-18-yl ester]: the 50% inhibitory concentration (IC50) – broadly, the midpoint of a concentration-inhibition curve – at NS3-NS4 protease was under 100 nM. Besides, the EC50 (as a rule, the concentration at which the effect is half-maximal) in assay [1] is under 100 nM.

On to `CC(C)(C)OC(=O)N[C@H]1CCCCC/C=C\[C@@H]2C[C@@]2(C(=O)NS(=O)(=O)NC2CCCC2)NC(=O)[C@@H]2C[C@@H](OC(=O)N3Cc4ccccc4C3)CN2C1=O` [Compound 134, (1S,4R,6S,14S,18R)-1,3-Dihydro-isoindole-2-carboxylic acid 14-tert-butoxycarbonylamino-4-(cyclopentylaminosulfonyl-aminocarbonyl)-2,15-dioxo-3,16-diaza-tricyclo[14.3.0.0^4,6]nonadec-7-en-18-yl ester], for which the IC50 at NS3-NS4 protease is under 100 nM. Moreover, in assay [1], the EC50 was under 100 nM.

For `CC(C)(C)OC(=O)N[C@H]1CCCCC/C=C\[C@@H]2C[C@@]2(C(=O)NS(=O)(=O)NC2CC2)NC(=O)[C@@H]2C[C@@H](OC(=O)N3CCc4ccccc4C3CN3CCCCC3)CN2C1=O` (some centres unmarked) [Compound 108], at NS3-NS4 protease, the concentration for half-maximal inhibition (IC50) is under 1000 nM. In assay [1], the concentration for a half-maximal effect (EC50) is under 100 nM.

Regarding `CC(C)(C)OC(=O)N[C@H]1CCCCC/C=C\[C@@H]2C[C@@]2(C(=O)NS(=O)(=O)Nc2ccc(C(F)(F)F)cc2)NC(=O)[C@@H]2C[C@@H](OC(=O)N3Cc4ccccc4C3)CN2C1=O` [Compound 132, (1S,4R,6S,14S,18R)-1,3-Dihydro-isoindole-2-carboxylic acid 14-tert-butoxycarbonylamino-4-(4-trifluoromethylphenylaminosulfonyl-aminocarbonyl)-2,15-dioxo-3,16-diaza-tricyclo[14.3.0.0^4,6]nonadec-7-en-18-yl ester], the IC50 on NS3-NS4 protease was under 100 nM. Moreover, the EC50 in assay [1] is under 100 nM.

Regarding `CC(C)(C)OC(=O)N[C@H]1CCCCC/C=C\[C@@H]2C[C@@]2(C(=O)NS(=O)(=O)N2CCOCC2)NC(=O)[C@@H]2C[C@@H](OC(=O)N3Cc4ccc(Cl)cc4C3)CN2C1=O` [Compound 116, (1S,4R,6S,14S,18R)-5-Chloro-1,3-Dihydro-isoindole-2-carboxylic acid 14-tert-butoxycarbonylamino-4-(morpholino-sulfonyl-aminocarbonyl)-2,15-dioxo-3,16-diaza-tricyclo[14.3.0.0^4,6]nonadec-7-en-18-yl ester], the IC50 on NS3-NS4 protease was under 100 nM. For the same compound, the EC50 in assay [1] was under 1000 nM.

In the case of `CN1CCC(N(C2CC2)S(=O)(=O)NC(=O)[C@@]23C[C@H]2/C=C\CCCCC[C@H](NC(=O)OC(C)(C)C)C(=O)N2C[C@H](OC(=O)N4Cc5ccccc5C4)C[C@H]2C(=O)N3)CC1` [Compound 124, (1S,4R,6S,14S,18R)-1,3-Dihydro-isoindole-2-carboxylic acid 14-tert-butoxycarbonylamino-4-(cyclopropyl(1-methylpiperidin-4-yl)aminosulfonyl-aminocarbonyl)-2,15-dioxo-3,16-diaza-tricyclo[14.3.0.0^4,6]nonadec-7-en-18-yl ester], the IC50 at NS3-NS4 protease is under 1000 nM. For the same compound, in assay [1], the EC50 is under 100 nM.

On to `CN1CCN(S(=O)(=O)NC(=O)[C@@]23C[C@H]2/C=C\CCCCC[C@H](NC(=O)OC(C)(C)C)C(=O)N2C[C@H](OC(=O)N4Cc5ccccc5C4)C[C@H]2C(=O)N3)CC1` [Compound 118, (1S,4R,6S,14S,18R)-1,3-Dihydro-isoindole-2-carboxylic acid 14-tert-butoxycarbonylamino-4-(4-methylpiperazine-1-sulfonyl-aminocarbonyl)-2,15-dioxo-3,16-diaza-tricyclo[14.3.0.0^4,6]nonadec-7-en-18-yl ester], for which, at NS3-NS4 protease, the IC50 was under 100 nM. The concentration for a half-maximal effect (EC50) in assay [1] is under 100 nM.
